Source: PMC7203344, “Sirtuin 1 Inhibiting Thiocyanates (S1th)—A New Class of Isotype Selective Inhibitors of NAD^+ Dependent Lysine Deacetylases” (Frontiers in Oncology, 2020)

Assays:
HDAC1 = HDAC1 (Homo sapiens, UniProt Q13547); experiment: Homogeneous ZMAL-based fluorescence assay for HDAC1; assay type: biochemical
Experimental: The inhibition of HDAC1 and 6 by the S1th and PR-619 was determined via the ZMAL-assay according to the same general procedure described for sirtuins (2.2.1). 5 μL substrate (10.5 μM final assay concentration) were mixed with 3 μL of inhibitor in DMSO or DMSO and 10 μL of HDAC solution (concentration adjusted to 15–30% conversion) and filled up to 60 μL with assay buffer (50 mM Tris, 137 mM NaCl, 1 mM MgCl2, 2,7 mM KCl, 1 mg/ml BSA, pH = 8.0). The mixture was incubated at 37°C and 140 rpm for 1.5 h. For the stop solution Trichostatin A (3.3 μM) was used instead of nicotinamide. Fluorescence intensity was measured as described above. An enzyme free blank control and an AMC containing 100% control were performed as well and inhibition was calculated in % in relation to a DMSO control.

Sirt1 = biological target: T1, Sirt1 (Homo sapiens, UniProt Q96EB6); experiment: Fluorescent thermal shift assay (FTSA), Sirt1; assay type: binding; conditions: inhibitor 100 μM; read-out: Thermal shift assay: Δ Tm of Sirt1
T1 construct: made in house; host or cells: E. coli BL21 Star (DE3)
T1 sequence (Q96EB6 134-747): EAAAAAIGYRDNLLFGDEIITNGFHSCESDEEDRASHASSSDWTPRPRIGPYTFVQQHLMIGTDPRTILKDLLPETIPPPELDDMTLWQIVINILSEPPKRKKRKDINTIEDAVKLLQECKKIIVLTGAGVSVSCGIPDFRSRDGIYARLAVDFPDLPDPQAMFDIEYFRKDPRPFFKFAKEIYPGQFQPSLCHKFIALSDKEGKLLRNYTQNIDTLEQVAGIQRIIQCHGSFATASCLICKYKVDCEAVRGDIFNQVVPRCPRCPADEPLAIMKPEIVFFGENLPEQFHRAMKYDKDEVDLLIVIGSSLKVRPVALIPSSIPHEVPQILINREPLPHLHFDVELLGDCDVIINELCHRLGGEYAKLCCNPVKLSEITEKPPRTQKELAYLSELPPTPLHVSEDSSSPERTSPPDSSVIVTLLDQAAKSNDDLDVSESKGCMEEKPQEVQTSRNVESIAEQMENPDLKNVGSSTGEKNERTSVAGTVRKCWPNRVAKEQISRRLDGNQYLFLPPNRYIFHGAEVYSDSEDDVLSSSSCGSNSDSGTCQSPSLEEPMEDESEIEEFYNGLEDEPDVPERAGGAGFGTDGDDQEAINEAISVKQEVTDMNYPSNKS
Experimental: In a 96-well plate (Hard-Shell® PCR-plates, 96-well, thin-wall, BioRAD, USA) 14 μL Sirt1_134−747 in assay buffer (0.3 mg/mL final assay concentration, 50 mM Tris/HCl, 137 mM NaCl, 2.7 mM KCl, 1 mM MgCL2, pH 8.0) were mixed with 1 μL inhibitor in DMSO (100 μM) or DMSO [final assay concentration 5% (v/v)] as a control and 5 μL SyproOrange (1:100 in assay buffer). The fluorescence intensity was monitored during a constant increase of temperature from 20 to 95°C, 1 K per 20 s, using a real-time-PCR-machine (C1000 TouchTM Thermal Cycler, CFX96TM Real-Time System, BioRAD, USA). Melting temperatures were calculated via GraphPad Prism according to a published procedure ([60]).

[1] = test system: γH2AX/H2AX levels in MEF cells; experiment: γH2AX level determination by western blot; assay type: cell-based, mouse; conditions: 48 h, EX-527 10 μM, S1th 10 30 μM, S1th 12 20 μM, S1th 13 12 μM, SirReal2 30 μM
Experimental: Sirt1 WT and KO MEFS cells were treated with 10 μM EX-527, 12 μM S1th 13 (6), 20 μM S1th 12 (5), 30 μM S1th 10 (7) and 30 μM SirReal2 [Sirt2 inhibitor, synthesized according to ([62])] for 48 h. Oxidative stress was induced using 10 μM Camptothecin 2 h. Whole-cell extracts were performed according to the Dignam protocol ([63]). Primary antibodies used for the western blot were anti-H2AX and anti-γH2AX (ab11175 and ab2893 resp., Abcam, UK). Densiometric analysis of the western blots was performed with Quantity One software (Bio-Rad Laboratories, Inc., USA).

[2] = test system: H3K9ac and p53K382ac in HeLa cells; experiment: Analysis of acetylation status in HeLa cells by western blotting; assay type: cell-based, human; conditions: 48 h; concentrations as in proliferation assay
Experimental: 5 × 10^4 cells were plated in 6-well plates and grown with the conditions and drug concentrations as described for the proliferation assay. Cells were harvested at 48 h and resuspendend in protein loading buffer. After sonication the samples were centrifuged at 14,000 rpm in an Eppendorf microcentrifuge (Eppendorf, DE) and the supernatants were analyzed by western-blot. The following antibodies were used: histone H3 (Cell Signaling #9715), histone H3K9ac (Cell Signaling # C5B11), GAPDH (Cell Signaling #D16H11), p53 (ThermoFisher #PA527822), and p53K382ac (Abcam 75754). Quantification was carried out using imageJ.

Sequence of HDAC1 (Q13547 whole entry, species assumed): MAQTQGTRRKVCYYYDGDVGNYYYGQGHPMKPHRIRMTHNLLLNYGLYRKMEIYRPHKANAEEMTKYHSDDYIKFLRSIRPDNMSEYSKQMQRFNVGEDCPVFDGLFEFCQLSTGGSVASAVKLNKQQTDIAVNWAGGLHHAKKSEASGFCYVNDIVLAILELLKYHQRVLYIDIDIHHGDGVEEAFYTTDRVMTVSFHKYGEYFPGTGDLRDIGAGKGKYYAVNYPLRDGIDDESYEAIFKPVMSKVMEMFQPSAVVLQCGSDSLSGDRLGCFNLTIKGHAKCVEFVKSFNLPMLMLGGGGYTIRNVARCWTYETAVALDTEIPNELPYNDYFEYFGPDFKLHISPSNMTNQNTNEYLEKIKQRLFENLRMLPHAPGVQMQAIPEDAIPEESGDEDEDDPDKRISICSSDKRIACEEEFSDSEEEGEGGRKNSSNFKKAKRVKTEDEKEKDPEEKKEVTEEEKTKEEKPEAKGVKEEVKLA

| inhibition at 100 µM (HDAC1) | ΔTm at 100 µM (Sirt1) | Structure (SMILES) | γH2AX/H2AX levels without Camptothecin [1] | H3K9 acetylation in HeLa cells [2] | p53K382 acetylation in HeLa cells [2] | residual activity HDAC1 (HDAC1) |
| --- | --- | --- | --- | --- | --- | --- |
| < 10% | -8.1 °C | CCCCNC(=O)Nc1cccc(SC#N)c1 [S1th 11] | – | – | – | – |
| < 10% | -7.2 °C | COc1ccc(SC#N)cc1OCC(=O)N(CCC#N)CCC#N [S1th 12] | decreased | clear effect on acetylation | clear effect on acetylation | – |
| < 10% | -5.9 °C | N#CSc1cccc(NC(=O)[C@H]2CC=CC[C@H]2C(=O)O)c1 [S1th 10] | decreased | clear effect on acetylation | clear effect on acetylation | – |

Continued, compound first:

| Structure (SMILES) | inhibition at 100 µM (HDAC1) | ΔTm at 100 µM (Sirt1) | γH2AX/H2AX levels without Camptothecin [1] | H3K9 acetylation in HeLa cells [2] | p53K382 acetylation in HeLa cells [2] | residual activity HDAC1 (HDAC1) |
| --- | --- | --- | --- | --- | --- | --- |
| N#CSc1cccc(NS(=O)(=O)c2ccc3c(c2)OCCO3)c1 [S1th 13] | < 10% | -9.6 °C | decreased | clear effect on acetylation | clear effect on acetylation | – |
| N#CSc1cc(SC#N)c(N)nc1N [PR-619, reference compound] | 54% | – | – | – | – | ~ 50% |
